Measurements taken from PubChem BioAssay (NCI).
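Where inhibition never reached the appropriate level, the endpoint shown equals the highest concentration tested. Otherwise, values were interpolated linearly from a five-concentration, 48-hour dose response in 96-well plates. TGI marks complete inhibition of growth.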

Key:
Experiment in all cases: DTP human tumour cell line panel, 48 h
IGROV1 ovarian = tested on: IGROV1 ovarian
DU-145 prostate = tested on: DU-145 prostate
EKVX NSCLC = tested on: EKVX NSCLC
SR leukemia = tested on: SR leukemia
ACHN renal = tested on: ACHN renal
NCI-H460 lung = tested on: NCI-H460 lung
UACC-62 melanoma = tested on: UACC-62 melanoma
HCC-2998 colon = tested on: HCC-2998 colon
MDA-MB-231 breast = tested on: MDA-MB-231 breast
T-47D breast = tested on: T-47D breast
SK-MEL-28 melanoma = tested on: SK-MEL-28 melanoma
RXF 393 renal = tested on: RXF 393 renal
SF-295 CNS = tested on: SF-295 CNS
NCI-H23 lung = tested on: NCI-H23 lung
HCT-116 colon = tested on: HCT-116 colon
HOP-62 NSCLC = tested on: HOP-62 NSCLC
M14 melanoma = tested on: M14 melanoma
A549 NSCLC = tested on: A549 NSCLC
OVCAR-8 ovarian = tested on: OVCAR-8 ovarian
RPMI-8226 leukemia = tested on: RPMI-8226 leukemia
CAKI-1 renal = tested on: CAKI-1 renal
HCT-15 colon = tested on: HCT-15 colon
PC-3 prostate = tested on: PC-3 prostate
LOX IMVI melanoma = tested on: LOX IMVI melanoma
MALME-3M melanoma = tested on: MALME-3M melanoma
MDA-MB-435 = tested on: MDA-MB-435
TK-10 renal = tested on: TK-10 renal
HS 578T breast = tested on: HS 578T breast
HT29 colon = tested on: HT29 colon
786-0 renal = tested on: 786-0 renal
UO-31 renal = tested on: UO-31 renal
MDA-N = tested on: MDA-N
SF-268 CNS = tested on: SF-268 CNS
SN12C renal = tested on: SN12C renal
OVCAR-3 ovarian = tested on: OVCAR-3 ovarian
SK-MEL-5 melanoma = tested on: SK-MEL-5 melanoma
HL-60(TB) leukemia = tested on: HL-60(TB) leukemia
U251 CNS = tested on: U251 CNS
NCI-H226 lung = tested on: NCI-H226 lung
KM12 colon = tested on: KM12 colon
UACC-257 melanoma = tested on: UACC-257 melanoma
SK-MEL-2 melanoma = tested on: SK-MEL-2 melanoma
HOP-92 NSCLC = tested on: HOP-92 NSCLC
NCI/ADR-RES ovarian = tested on: NCI/ADR-RES ovarian
OVCAR-4 ovarian = tested on: OVCAR-4 ovarian
K-562 leukemia = tested on: K-562 leukemia
SNB-19 CNS = tested on: SNB-19 CNS
A498 renal = tested on: A498 renal
OVCAR-5 ovarian = tested on: OVCAR-5 ovarian
BT-549 breast = tested on: BT-549 breast
MOLT-4 leukemia = tested on: MOLT-4 leukemia
NCI-H522 lung = tested on: NCI-H522 lung
SW-620 colon = tested on: SW-620 colon

Measured: TGI

Cc1cc(OCC(=O)O)c(Cl)cc1Cl
> 100 µM: IGROV1 ovarian | DU-145 prostate | EKVX NSCLC | SR leukemia | ACHN renal | NCI-H460 lung | UACC-62 melanoma | HCC-2998 colon | MDA-MB-231 breast | T-47D breast | SK-MEL-28 melanoma | RXF 393 renal | SF-295 CNS | NCI-H23 lung | HCT-116 colon | HOP-62 NSCLC | M14 melanoma | A549 NSCLC | OVCAR-8 ovarian | RPMI-8226 leukemia | CAKI-1 renal | HCT-15 colon | PC-3 prostate | LOX IMVI melanoma | MALME-3M melanoma | MDA-MB-435 | TK-10 renal | HS 578T breast | HT29 colon | 786-0 renal | UO-31 renal | MDA-N | SF-268 CNS | SN12C renal | OVCAR-3 ovarian | SK-MEL-5 melanoma | HL-60(TB) leukemia | U251 CNS | NCI-H226 lung | KM12 colon | UACC-257 melanoma | SK-MEL-2 melanoma | HOP-92 NSCLC | NCI/ADR-RES ovarian | OVCAR-4 ovarian | K-562 leukemia | SNB-19 CNS | A498 renal | OVCAR-5 ovarian | BT-549 breast | MOLT-4 leukemia | NCI-H522 lung | SW-620 colon
